Nine compounds from patent US20210186960A1, “MODULATORS OF INDOLEAMINE 2,3-DIOXYGENASE” (GLAXOSMITHKLINE INTELLECTUAL PROPERTY DEVELOPMENT LIMITED, priority 2017, published 2021) can be followed below.

Data set [1] can be described thus: Rat oral PK studies of prodrugs at 5 mg/kg. Format: in vivo. The conditions noted are these: analyte as labelled. How it is done:
Rat oral PK studies of prodrugs at 5 mg/kg dose (solution in 100% (40 mg oleic acid+25mg Tween 80+2 mL of PBS/fresh) at 0.5 mg/mL).

The target in data set [2] is T1, indoleamine 2, 3-dioxygenase (IDO1) (Homo sapiens, UniProt P14902).
T1 construct: to induce the expression of indoleamine 2, 3-dioxygenase (IDO1); host or cells: human PBMC stimulated with IFN-gamma and LPS
As to the kind of experiment: IDO1 PBMC RapidFire MS assay (kynurenine detection). The conditions noted are these: IFN-γ/LPS stimulated human PBMC, kynurenine by MS, 2 days; read-out: PBMC PXC50 (converted). In kind it is cell-based. The procedure:
(§1) Compounds of the present invention were tested via high-throughput cellular assays utilizing detection of kynurenine via mass spectrometry and cytotoxicity as end-points. For the mass spectrometry and cytotoxicity assays, human peripheral blood mononuclear cells (PBMC) (PB003F; AllCells®, Alameda, Calif.) were stimulated with human interferon-γ (IFN-γ) (Sigma-Aldrich Corporation, St. Louis, Mo.) and lipopolysaccharide from Salmonella minnesota (LPS) (Invivogen, San Diego, Calif.) to induce the expression of indoleamine 2, 3-dioxygenase (IDO1). Compounds with IDO1 inhibitory properties decreased the amount of kynurenine produced by the cells via the tryptophan catabolic pathway. Cellular toxicity due to the effect of compound treatment was measured using CellTiter-Glo® reagent (CTG) (Promega Corporation, Madison, Wis.), which is based on luminescent detection of ATP, an indicator of metabolically active cells.
(§2) In preparation for the assays, test compounds were serially diluted 3-fold in
(§3) DMSO from a typical top concentration of 1 mM or 5 mM and plated at 0.5 μL in 384-well, polystyrene, clear bottom, tissue culture treated plates with lids (Greiner Bio-One, Kremsmünster, Austria) to generate 11-point dose response curves. Low control wells (0% kynurenine or 100% cytotoxicity) contained either 0.5 μL of DMSO in the presence of unstimulated (−IFN-γ/−LPS) PBMCs for the mass spectrometry assay or 0.5 μL of DMSO in the absence of cells for the cytotoxicity assay, and high control wells (100% kynurenine or 0% cytotoxicity) contained 0.5 μL of DMSO in the presence of stimulated (+IFN-γ/+LPS) PBMCs for both the mass spectrometry and cytotoxicity assays.
(§4) Frozen stocks of PBMCs were washed and recovered in RPMI 1640 medium (Thermo Fisher Scientific, Inc., Waltham, Mass.) supplemented with 10% v/v heat-inactivated fetal bovine serum (FBS) (Thermo Fisher Scientific, Inc., Waltham, Mass.), and 1× penicillin-streptomycin antibiotic solution (Thermo Fisher Scientific, Inc., Waltham, Mass.). The cells were diluted to 1,000,000 cells/mL in the supplemented RPMI 1640 medium. 50 μL of either the cell suspension, for the mass spectrometry assay, or medium alone, for the cytotoxicity assay, were added to the low control wells, on the previously prepared 384-well compound plates, resulting in 50,000 cells/well or 0 cells/well respectively. IFN- y and LPS were added to the remaining cell suspension at final concentrations of 100 ng/ml and 50 ng/ml respectively, and 50 μL of the stimulated cells were added to all remaining wells on the 384-well compound plates. The plates, with lids, were then placed in a 37 °C, 5% CO2 humidified incubator for 2 days.
(§5) Following incubation, the 384-well plates were removed from the incubator and allowed to equilibrate to room temperature for 30 minutes. For the cytotoxicity assay, CellTiter-Glo® was prepared according to the manufacturer's instructions, and 40 μL were added to each plate well. After a twenty minute incubation at room temperature, luminescence was read on an EnVision® Multilabel Reader (Perkin Elmer Inc., Waltham, Mass.). For the mass spectrometry assay, 10 μL of supernatant from each well of the compound-treated plates were added to 40 μL of acetonitrile, containing 10 μM of an internal standard for normalization, in 384-well, polypropylene, V-bottom plates (Greiner Bio-One, Kremsmunster, Austria) to extract the organic analytes. Following centrifugation at 2000 rpm for 10 minutes, 10 μL from each well of the acetonitrile extraction plates were added to 90 μL of sterile, distilled H2O in 384-well, polypropylene, V-bottom plates for analysis of kynurenine and the internal standard on the RapidFire 300 (Agilent Technologies, Santa Clara, Calif.) and 4000 QTRAP MS (SCIEX, Framingham, Mass.). MS data were integrated using Agilent Technologies' RapidFire Integrator software, and data were normalized for analysis as a ratio of kynurenine to the internal standard. […]

The test system of data set [3] is human peripheral blood mononuclear cells (PBMC). Nature of the data set: PBMC cytotoxicity assay (CellTiter-Glo). In kind it is cell-based. The conditions noted are these: pCC50, CellTiter-Glo, stimulated human PBMC, 2 days. How it is done: as §1, §2, §3, §4, §5
The mark [4] stands for this setting: after PO dose of 5 mg/kg example 6 in male Wistar Han rat.

T1 sequence (P14902 whole entry): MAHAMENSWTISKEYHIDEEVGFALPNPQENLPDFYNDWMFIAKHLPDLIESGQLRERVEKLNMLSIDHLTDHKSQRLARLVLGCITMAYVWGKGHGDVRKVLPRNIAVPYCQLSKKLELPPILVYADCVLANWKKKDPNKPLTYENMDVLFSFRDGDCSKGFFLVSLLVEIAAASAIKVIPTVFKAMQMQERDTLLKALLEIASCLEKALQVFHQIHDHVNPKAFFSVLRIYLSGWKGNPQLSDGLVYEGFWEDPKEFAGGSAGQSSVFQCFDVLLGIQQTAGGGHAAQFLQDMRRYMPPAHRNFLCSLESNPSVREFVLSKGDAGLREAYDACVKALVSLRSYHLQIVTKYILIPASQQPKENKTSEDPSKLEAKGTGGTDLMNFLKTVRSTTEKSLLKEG

For `CCCCCCCCCCCCCCCC(=O)OCC(COC(=O)CCCCCCCCCCCCCCC)OC(=O)CCCC(=O)O[C@H]1CC[C@H](N(CC(C)C)c2ccc([C@H](C)CC(=O)O)cc2Nc2cnc(Cl)cn2)CC1` [example 2, (R)-3-(4-((trans-4-((5-((1,3-bis(palmitoyloxy)propan-2-yl)oxy)-5-oxopentanoyl)oxy)cyclohexyl) (isobutyl)amino)-3-((5-chloropyrazin-2-yl)amino)phenyl)butanoic acid], in data set [1] (after PO dose of 5 mg/kg example 2 in male Wistar Han rat), the DNAUC0_20 entry is reported as “not detected”. Besides, the IC50 in data set [2] was 0.251 µM. In data set [3], the “PBMC TOX PXC50” value is reported as less than 5.
Regarding `CCCCCCCCCCCCCCCC(=O)OCC(COC(=O)CCCCCCCCCCCCCCC)OC(=O)CC(C)CC(=O)O[C@H]1CC[C@H](N(CC(C)C)c2ccc([C@H](C)CC(=O)O)cc2Nc2cnc(Cl)cn2)CC1` (stereo partly drawn) [example 4, (3R)-3-(4-((trans-4-((5-((1,3-bis(palmitoyloxy)propan-2-yl)oxy)-3-methyl-5-oxopentanoyl)oxy)cyclohexyl) (isobutyl)amino)-3-((5-chloropyrazin-2-yl)amino)phenyl)butanoic acid], the IC50 in data set [2] was 7.94 µM. The “PBMC TOX PXC50” value in data set [3] was less than 5.
With `CCCCCCCCCCCCCCCC(=O)OCC(COC(=O)CCCCCCCCCCCCCCC)OC(=O)CC(C)CC(=O)O[C@H]1CC[C@H](N(CC(C)C)c2ccc([C@H](C)CC(=O)O)cc2Nc2ccc(Cl)nc2)CC1` (stereo partly drawn) [example 3, (3R)-3-(4-((trans-4-((5-((1,3-bis(palmitoyloxy)propan-2-yl)oxy)-3-methyl-5-oxopentanoyl)oxy)cyclohexyl) (isobutyl)amino)-3-((6-chloropyridin-3-yl)amino)phenyl)butanoic acid], the IC50 in data set [2] was 1.26 µM. In addition, in data set [3], the “PBMC TOX PXC50” value is reported as less than 5.
As to `CC(C)CN(c1ccc([C@H](C)CC(=O)O)cc1Nc1ccc(Cl)nc1)[C@H]1CC[C@H](O)CC1` [intermediate C2, (R)-3-(3-((6-chloropyridin-3-yl)amino)-4-(((1r,4R)-4 hydroxycyclohexyl)(isobutyl)amino)-phenyl)butanoic acid], in data set [3], the “PBMC TOX PXC50” value is listed as less than 5.
The same measure, in the same setting: to `CC(C)CN(c1ccc([C@H](C)CC(=O)O)cc1Nc1cnc(Cl)cn1)[C@H]1CC[C@H](O)CC1` [intermediate C3] belongs less than 5.
As for `CCCCCCCCCCCCCCCC(=O)OCC(COC(=O)CCCCCCCCCCCCCCC)OC(=O)CC(C)CC(=O)OCOC(=O)C[C@@H](C)c1ccc(N(CC(C)C)C2CCOCC2)c(Nc2ccc(Cl)nc2)c1` (stereo partly drawn) [example 6, 1-(1,3-bis(palmitoyloxy)propan-2-yl) 5-((((R)-3-(3-((6-chloropyridin-3-yl)amino)-4-(isobutyl(tetrahydro-2H-pyran-4-yl)amino)phenyl)butanoyl)oxy)methyl) 3-methylpentanedioate], the DNAUC0_20 result in data set [1] (setting [4]) is listed as “not detected”. For the same compound, in data set [2], the IC50 is 3.16 µM. Further, the “PBMC TOX PXC50” value in data set [3] is reported as less than 5.
As to `CCCCCCCCCCCCCCCC(=O)OCC(COC(=O)CCCCCCCCCCCCCCC)OC(=O)CC(C)CC(=O)Oc1cc(C)cc(C)c1C(C)(C)CC(=O)O[C@H]1CC[C@H](N(CC(C)C)c2ccc([C@H](C)CC(=O)O)cc2Nc2cnc(Cl)cn2)CC1` (stereo partly drawn) [example 5, (3R)-3-(4-((trans-4-((3-(2-((5-((1,3-bis(palmitoyloxy)propan-2-yl)oxy)-3-methyl-5-oxopentanoyl)oxy)-4,6-dimethylphenyl)-3-methylbutanoyl)oxy)cyclohexyl)(isobutyl)amino)-3-((5-chloropyrazin-2-yl)amino)phenyl)butanoic acid], the DNAUC0_20 result in data set [1] (after PO dose of 5 mg/kg example 5 in male Wistar Han rat) is given as “not detected”. Besides, the IC50 in data set [2] was 0.631 µM. Also, in data set [3], the “PBMC TOX PXC50” value is given as less than 5.
In the case of `CC(C)CN(c1ccc([C@H](C)CC(=O)O)cc1Nc1ccc(Cl)nc1)C1CCOCC1` [intermediate C5], in data set [1] (setting [4]), the DNAUC0_20 came out at 0.075 µg·h/mL. In data set [3], the “PBMC TOX PXC50” value is recorded as less than 5.
Consider `CCCCCCCCCCCCCCCC(=O)OCC(COC(=O)CCCCCCCCCCCCCCC)OC(=O)CCCC(=O)O[C@H]1CC[C@H](N(CC(C)C)c2ccc([C@H](C)CC(=O)O)cc2Nc2ccc(Cl)nc2)CC1` [example 1, (R)-3-(4-((trans-4-((5-((1,3-bis(palmitoyloxy)propan-2-yl)oxy)-5-oxopentanoyl)oxy)cyclohexyl) (isobutyl)amino)-3-((6-chloropyridin-3-yl)amino)phenyl)butanoic acid], for which the IC50 in data set [2] is 0.158 µM. Moreover, the “PBMC TOX PXC50” value in data set [3] was less than 5.
